In ChEMBL document CHEMBL5055672, “Design, Synthesis, Biological Evaluation, and Computational Studies of Novel Fluorinated Candidates as PI3K Inhibitors: Targeting Fluorophilic Binding Sites” (J Med Chem, 2021):

Columns and labels:
MOLT-4 = test: Cytotoxicity against human MOLT-4 cells assessed as growth inhibition at 10 uM after 48 hrs by sulforhodamine B assay; format: functional; details: read-out: GI
SR = test: Cytotoxicity against human SR cells assessed as growth inhibition at 10 uM after 48 hrs by sulforhodamine B assay; format: functional; details: read-out: GI
A549 = test: Cytotoxicity against human A549 cells assessed as growth inhibition at 10 uM after 48 hrs by sulforhodamine B assay; format: functional; details: read-out: GI
NCI-H460 = test: Cytotoxicity against human NCI-H460 cells assessed as growth inhibition at 10 uM after 48 hrs by sulforhodamine B assay; format: functional; details: read-out: GI
NCI-H522 = test: Cytotoxicity against human NCI-H522 cells assessed as growth inhibition at 10 uM after 48 hrs by sulforhodamine B assay; format: functional; details: read-out: GI
SF-268 = test: Cytotoxicity against human SF-268 cells assessed as growth inhibition at 10 uM after 48 hrs by sulforhodamine B assay; format: functional; details: read-out: GI
NCI/ADR-RES = test: Cytotoxicity against human NCI-ADR-RES cells assessed as growth inhibition at 10 uM after 48 hrs by sulforhodamine B assay; format: functional; details: read-out: GI
SN12C = test: Cytotoxicity against human SN12C cells assessed as growth inhibition at 10 uM after 48 hrs by sulforhodamine B assay; format: functional; details: read-out: GI
UO-31 = test: Cytotoxicity against human UO-31 cells assessed as growth inhibition at 10 uM after 48 hrs by sulforhodamine B assay; format: functional; details: read-out: GI
MCF7 [1] = test: Antiproliferative activity against human MCF7 cells assessed as inhibition of cell growth incubated for 48 hrs by MTT assay; format: functional, cell-based; details: MCF7, 48 h
MCF-10A = test: Cytotoxicity against human MCF10A cells assessed as inhibition of cell growth incubated for 48 hrs by MTT assay; format: cell-based
[2] = Selectivity index, ratio of IC50 for human MCF-10A cells to IC50 for human MCF7 cells; format: toxicity; details: MCF-10A cells versus MCF7 cells, read-out: Ratio IC50
MCF7 [3] = test: Induction of cell cycle arrest in human MCF7 cells assessed as accumulation of cells at G1 phase at IC50 concentration by Propidium iodide staining based flow cytometric analysis (reference value: 61.45%); format: functional
MCF7 [4] = test: Induction of cell cycle arrest in human MCF7 cells assessed as accumulation of cells at G2/M phase at IC50 concentration by Propidium iodide staining based flow cytometric analysis (reference value: 10.94%); format: functional
[5] = target: Phosphatidylinositol 4,5-bisphosphate 3-kinase catalytic subunit beta isoform (Homo sapiens, UniProt P42338); test: Inhibition of PI3Kbeta (unknown origin) using PIP2 as substrate preincubated for 10 mins followed by substrate addition and measured after 1 hr by ELISA
Sequence of Phosphatidylinositol 4,5-bisphosphate 3-kinase catalytic subunit beta isoform (P42338 whole entry, canonical isoform): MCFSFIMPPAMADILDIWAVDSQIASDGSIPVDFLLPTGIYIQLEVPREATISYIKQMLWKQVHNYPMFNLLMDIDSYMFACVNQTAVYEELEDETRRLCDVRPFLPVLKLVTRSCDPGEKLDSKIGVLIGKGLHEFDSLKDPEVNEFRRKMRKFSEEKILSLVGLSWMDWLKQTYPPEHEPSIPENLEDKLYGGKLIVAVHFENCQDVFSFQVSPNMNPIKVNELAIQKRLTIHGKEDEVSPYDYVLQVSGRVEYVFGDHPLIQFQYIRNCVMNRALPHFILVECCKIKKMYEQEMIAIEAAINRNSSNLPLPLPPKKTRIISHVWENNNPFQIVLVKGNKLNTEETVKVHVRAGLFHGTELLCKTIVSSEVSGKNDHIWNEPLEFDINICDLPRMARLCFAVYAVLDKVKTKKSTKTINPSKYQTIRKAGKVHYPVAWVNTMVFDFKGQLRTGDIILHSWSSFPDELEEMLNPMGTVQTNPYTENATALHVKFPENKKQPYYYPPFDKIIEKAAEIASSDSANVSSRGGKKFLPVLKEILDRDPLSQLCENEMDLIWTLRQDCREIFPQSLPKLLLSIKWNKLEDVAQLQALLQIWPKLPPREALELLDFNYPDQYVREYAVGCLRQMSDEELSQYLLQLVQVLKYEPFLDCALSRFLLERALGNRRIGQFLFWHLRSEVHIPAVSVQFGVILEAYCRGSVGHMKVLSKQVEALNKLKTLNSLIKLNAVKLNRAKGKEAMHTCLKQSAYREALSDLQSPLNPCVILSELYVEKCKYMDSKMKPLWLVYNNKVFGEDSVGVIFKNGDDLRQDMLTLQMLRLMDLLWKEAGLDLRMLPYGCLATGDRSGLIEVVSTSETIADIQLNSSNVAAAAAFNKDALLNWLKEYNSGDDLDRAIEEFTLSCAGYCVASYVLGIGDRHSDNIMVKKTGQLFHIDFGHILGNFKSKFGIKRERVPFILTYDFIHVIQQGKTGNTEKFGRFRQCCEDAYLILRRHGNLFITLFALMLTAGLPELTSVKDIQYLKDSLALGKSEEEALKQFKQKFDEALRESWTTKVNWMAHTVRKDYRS

- IC50 (MCF7 [1]): 13.3 µM
- IC50 [5]: 53.5 µM
Compound: COC(=O)/C=C1\S/C(=N\N=C\c2ccc(OCC(F)(F)F)cc2)N(c2ccccc2)C1=O
- inhibition of growth at 10 µM (MOLT-4): 13.4%
- inhibition of growth at 10 µM (SR): 24.7%
- inhibition of growth at 10 µM (A549): 15.3%
- inhibition of growth at 10 µM (NCI-H460): 14.2%
- inhibition of growth at 10 µM (NCI-H522): 12.2%
- inhibition of growth at 10 µM (SF-268): 11.8%
- inhibition of growth at 10 µM (NCI/ADR-RES): 24.6%
- inhibition of growth at 10 µM (SN12C): 28.6%
- inhibition of growth at 10 µM (UO-31): 24.8%
- IC50 (MCF-10A): 24.2 µM
- selectivity ratio [2]: 1.81
- Activity (MCF7 [3]): 55.47%
- Activity (MCF7 [4]): 8.51%
